Measured values as given in patent publication US11369665B2, “Anti-inflammatory peptides and composition comprising the same” (GemVax & KAEL Co., Ltd., priority 2012, dated 2022).

Columns and labels:
neural stem cells = experiment: Co-treatment amyloid-β and PEP-1: proliferation (BrdU assay); format: cell-based, rat; details: 20 μM amyloid-β protein, co-treated 48 hours
Experimental: To determine whether PEP 1 has the effect of suppressing the neurotoxicity caused by amyloid-β protein, 20 μM amyloid-β protein and various concentrations of PEP-1 were co-treated for 48 hours. The cell viability and apoptosis were measured using MMT assay, CCK-8 assay, LDH assay and TUNEL assay, and neural stem cell proliferation by BrdU assay.
We also confirmed with BrdU assay that the decreased cell proliferation due to amyloid-β protein was restored when processed with PEP-1 (Refer to FIG. 10).

HMGB1 = experiment: Western blot of HMGB1 in amyloid-β damaged neural stem cells; format: cell-based, rat; details: after the decrease by amyloid-β treatment, FIG. 15J
Text: HMGB1, a non-histone structure protein that binds to DNA, serves diverse roles within a cell; such as stabilizing nucleosome structure and regulating gene expression.

HMGB1, TNF-α and COX = experiment: Western blot of pro-inflammatory cytokine expression; format: cell-based; details: cells treated with both LPS and PEP-1
Experimental: Raw 264.7 macrophage cell (KCBL, 40071) from Korea Cell Bank was maintained in Dulbecco's modified Eagle's medium (DMEM; PAA, Austria) containing 10% fetal bovine serum (FBS; GIBCO®), 100 unit/mL of streptomycin, and penicillin (Gibco Laboratories) at 37° C. with 5% CO2. Raw 264.7 cells were seeded into a 96-well plate at a density of 1×10^6 cells/mL and incubated overnight.
On the following day, the medium was replaced with fresh medium and 5 μg/mL of peptide (obtained as described in Experiment example 1) was added to the cells. After 30 min incubation of cells with the peptide 50 μL of LPS (to a final concentration of 1 μg/mL) was added, and cells were incubated for additional 24 hr. The experimental sample with the induction of inflammatory response was treated with 1 μg/mL mL lipopolysaccharide (LPS; SIGMA-ALDRICH®, USA) and control sample was treated with phosphate buffered saline (PBS; pH 7.2). The supernatant samples from each condition was collected in eppendorf tubes and subjected to further analysis.
Protein expression level was determined by Western blot analysis. […] The membrane was incubated with ECL (enhanced chemiluminoesence) solution ([…]®), exposed to X-ray, and the level of protein expression was analyzed according to the exposure level shown on the X-ray film. […]

Sequence: EARPALLTSRLRFIPK [PEP-1]
- cell proliferation decreased by amyloid-β (BrdU) (neural stem cells): restored
- HMGB1 in the cytoplasm of the nerve cells (HMGB1): increase of HMGB1
- decrease of pro-inflammatory cytokine levels (HMGB1, TNF-α and COX): more than 70%
